Some test systems named below: M14 melanoma; CCRF-CEM leukemia; COLO 205 colon; OVCAR-4 ovarian; SW-620 colon; UACC-62 melanoma; RPMI-8226 leukemia; NCI/ADR-RES ovarian; TK-10 renal; CAKI-1 renal.
Holding throughout (test): NCI anticancer screen, dose series, 48 h

Values joined by “and” are separate entries in the source; they are usually repeats but may differ in a detail not shown here. Equal values may be shown once.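 Method: 48-hour compound exposure of cells in 96-well plates, five concentrations, linear interpolation of endpoints. GI50 is the concentration that inhibits growth by half. TGI: concentration producing complete growth inhibition.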

Regarding `Cc1c(N)nc(C2CC(=O)N2CC(N)C(N)=O)nc1C(=O)NC(C(=O)NC(C)C(O)C(C)C(=O)NC(C(=O)NCCc1nc(-c2nc(C(=O)NCCNCC(C)O)cs2)cs1)C(C)O)C(OC1OC(CO)C(O)C(O)C1OC1OC(CO)C(O)C(OC(N)=O)C1O)c1cnc[nH]1` (stereo not drawn), the GI50 in the test on M14 melanoma was 7.91 µM; in the test with CCRF-CEM leukemia it was 12.6 µM; with COLO 205 colon, 33.6 µM; in the test with OVCAR-4 ovarian, 10.7 µM; in the test with SW-620 colon it was above 50 µM; with UACC-62 melanoma, 0.756 µM. Besides, the results for the GI50 in the test on RPMI-8226 leukemia, in the test with TK-10 renal and with CAKI-1 renal were above 50 µM, 11.1 µM and 0.0234 µM, respectively. Besides, the TGI in the test with M14 melanoma is 50 µM and 23.8 µM; in the test on CCRF-CEM leukemia, 50 µM and > 33 µM; in the test with COLO 205 colon, 50 µM and 36.6 µM; with OVCAR-4 ovarian, 50 µM and > 100 µM; with SW-620 colon, above 50 µM; with UACC-62 melanoma it was 6.43 µM and 7.31 µM. The TGI with RPMI-8226 leukemia was above 50 µM; in the test with NCI/ADR-RES ovarian it was 50 µM; with TK-10 renal, 50 µM and > 100 µM.

`COc1ccc(Cl)cc1Nc1nc(C(F)(F)F)ccc1C(=O)N/N=C/c1ccc(Cl)cc1`: the GI50 in the test on M14 melanoma is 3.69 µM; with CCRF-CEM leukemia, 0.594 µM; in the test with COLO 205 colon it was 2.76 µM; in the test on OVCAR-4 ovarian, 0.74 µM; in the test on SW-620 colon, 8.2 µM; with UACC-62 melanoma, 8.01 µM. In addition, the GI50 in the test with RPMI-8226 leukemia was 3.5 µM; with NCI/ADR-RES ovarian, 6.35 µM; in the test on TK-10 renal, 0.513 µM; in the test with CAKI-1 renal it was 5.37 µM. Moreover, the TGI in the test with M14 melanoma was above 100 µM; with CCRF-CEM leukemia, 10.3 µM; with COLO 205 colon, above 100 µM; in the test with OVCAR-4 ovarian, above 100 µM; with SW-620 colon, above 100 µM; in the test on UACC-62 melanoma, 40.9 µM. Further, the TGI in the test on RPMI-8226 leukemia was above 100 µM; with NCI/ADR-RES ovarian, above 100 µM; with TK-10 renal it was 16.8 µM; with CAKI-1 renal it was 29.7 µM.

With `O=C1OC(c2ccccc2)=N/C1=C\c1ccc(N(CCCl)CCCl)cc1`, the TGI with M14 melanoma, with CCRF-CEM leukemia, in the test with COLO 205 colon, with OVCAR-4 ovarian, in the test with SW-620 colon and in the test on UACC-62 melanoma was above 100 µM each time. For the same compound, the TGI in the test with RPMI-8226 leukemia, in the test with NCI/ADR-RES ovarian, with TK-10 renal and in the test on CAKI-1 renal was above 100 µM throughout.

As to `Cn1c(=O)c(-c2c(Cl)cccc2Cl)cc2cnc(Nc3ccc(N4CCOCC4)cc3)nc21`, the GI50 with M14 melanoma was below 0.01 µM; with CCRF-CEM leukemia, 0.0272 µM; with COLO 205 colon, below 0.0125 µM; in the test with OVCAR-4 ovarian, 0.404 µM; in the test on SW-620 colon it was 0.202 µM; with UACC-62 melanoma, below 0.0131 µM. Further, the values for the GI50 with RPMI-8226 leukemia, in the test with NCI/ADR-RES ovarian and in the test on CAKI-1 renal were 0.356 µM, 0.0158 µM and below 0.01 µM, respectively. Also, the TGI was 0.332 µM with CCRF-CEM leukemia; 0.477 µM with COLO 205 colon; above 100 µM in the test with OVCAR-4 ovarian; above 100 µM in the test on SW-620 colon; 1.78 µM in the test on RPMI-8226 leukemia; 0.09 µM in the test on NCI/ADR-RES ovarian. The TGI with TK-10 renal is 1.24 µM; with CAKI-1 renal it was 0.0806 µM.

For the compound `O=C1COc2c(CCNCCN(C(=O)CCNCCc3ccc(Cl)c(Cl)c3)C3CCCCC3)ccc(O)c2N1`, the GI50 in the test with M14 melanoma is 16.6 µM; in the test with CCRF-CEM leukemia, 11 µM; in the test with COLO 205 colon, 14.8 µM; with OVCAR-4 ovarian, 15 µM; with SW-620 colon, 16 µM; with UACC-62 melanoma, 15.5 µM. The GI50 with RPMI-8226 leukemia is 14.5 µM; with NCI/ADR-RES ovarian, above 100 µM; with TK-10 renal it was 14.1 µM; with CAKI-1 renal, above 45.9 µM. For the same compound, the TGI was 31.8 µM in the test with M14 melanoma; 27.6 µM in the test on CCRF-CEM leukemia; 32.3 µM in the test with COLO 205 colon; 28.9 µM in the test on OVCAR-4 ovarian; 31 µM in the test with SW-620 colon; 30.4 µM in the test on UACC-62 melanoma. Besides, the TGI was 33.8 µM in the test with RPMI-8226 leukemia, above 100 µM in the test with NCI/ADR-RES ovarian, 28.8 µM in the test with TK-10 renal and above 74.9 µM in the test with CAKI-1 renal.

On to `COc1cc(-c2nn(-c3cccc(NC(=O)c4cccc(C(F)(F)F)c4)c3)cc2-c2ccncc2)ccc1Cl`, for which the GI50 in the test with M14 melanoma is 1.63 µM; in the test on CCRF-CEM leukemia it was 1.45 µM; in the test on COLO 205 colon it was 1.64 µM; with OVCAR-4 ovarian, 2.28 µM; with SW-620 colon, 2.31 µM; in the test with UACC-62 melanoma, 1.94 µM. Besides, the GI50 was 1.57 µM in the test on RPMI-8226 leukemia, 1.09 µM in the test on NCI/ADR-RES ovarian, 3.24 µM in the test on TK-10 renal and 2.01 µM in the test on CAKI-1 renal. For the same compound, the TGI was above 50 µM with M14 melanoma; above 50 µM in the test on CCRF-CEM leukemia; 5.17 µM in the test on COLO 205 colon; above 50 µM in the test with OVCAR-4 ovarian; above 50 µM in the test on SW-620 colon; above 50 µM with UACC-62 melanoma. For the same compound, the TGI in the test with RPMI-8226 leukemia was 26.6 µM; in the test on NCI/ADR-RES ovarian it was 3.17 µM; in the test with TK-10 renal it was above 50 µM; in the test with CAKI-1 renal it was above 50 µM.

For the compound `Oc1ccc(/C=N/Nc2nnc(N/N=C/c3ccc(O)cc3O)c3ccccc23)c(O)c1`, the GI50 is 0.358 µM with M14 melanoma; 0.28 µM in the test with CCRF-CEM leukemia; 0.897 µM with COLO 205 colon; 0.449 µM in the test on OVCAR-4 ovarian; 0.318 µM in the test with UACC-62 melanoma; 0.345 µM in the test on RPMI-8226 leukemia. For the same compound, the GI50 in the test with TK-10 renal was 0.526 µM; in the test on CAKI-1 renal, 0.334 µM. Moreover, the TGI in the test with M14 melanoma is 1.53 µM; in the test with CCRF-CEM leukemia it was 0.783 µM and 5.49 µM; with COLO 205 colon, 2.96 µM; with OVCAR-4 ovarian, 5.31 µM; in the test with SW-620 colon, 7.71 µM; in the test on UACC-62 melanoma it was 0.602 µM and 1.58 µM. In addition, the TGI in the test on RPMI-8226 leukemia is 0.533 µM and 1.77 µM; with NCI/ADR-RES ovarian, 12.5 µM; in the test on TK-10 renal, 9.18 µM; in the test on CAKI-1 renal, 0.671 µM.

Consider `O=C(Nc1cccc(C(F)(F)F)c1)Nc1ccc(OCc2nnc(-c3ccccc3)o2)c(F)c1`, for which the GI50 in the test on M14 melanoma is 7.18 µM; in the test on CCRF-CEM leukemia, 3.29 µM; with COLO 205 colon it was 2.47 µM; in the test on OVCAR-4 ovarian, 4 µM; in the test on SW-620 colon, 4.08 µM; with UACC-62 melanoma, 4.1 µM. The GI50 was 1.67 µM with RPMI-8226 leukemia, 4.61 µM in the test with NCI/ADR-RES ovarian, 20.5 µM in the test on TK-10 renal and 6.68 µM in the test on CAKI-1 renal. Besides, the TGI in the test on M14 melanoma was 62.8 µM; in the test on CCRF-CEM leukemia, 54.9 µM; in the test on COLO 205 colon, 10.6 µM; in the test on OVCAR-4 ovarian, 30.1 µM; in the test on SW-620 colon, above 100 µM; in the test with UACC-62 melanoma it was 24.6 µM. The TGI in the test on RPMI-8226 leukemia is 6.2 µM; in the test with NCI/ADR-RES ovarian, 26.9 µM; with TK-10 renal, 68.9 µM; in the test on CAKI-1 renal, 37.4 µM.

Source of the values: PubChem BioAssay (NCI).
